Data as given in PubChem BioAssay (NCI).
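Method: 48-hour compound exposure of cells in 96-well plates, five concentrations, linear interpolation of endpoints. TGI is the concentration that stops growth completely.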

Key:
Assay in all cases: DTP human tumour cell line panel, 48 h
786-0 renal = tested on: 786-0 renal
A549 NSCLC = tested on: A549 NSCLC
ACHN renal = tested on: ACHN renal
CAKI-1 renal = tested on: CAKI-1 renal
COLO 205 colon = tested on: COLO 205 colon
DLD-1 colon = tested on: DLD-1 colon
DMS 114 small cell lung = tested on: DMS 114 small cell lung
DMS 273 small cell lung = tested on: DMS 273 small cell lung
EKVX NSCLC = tested on: EKVX NSCLC
HCC-2998 colon = tested on: HCC-2998 colon
HCT-116 colon = tested on: HCT-116 colon
HCT-15 colon = tested on: HCT-15 colon
HOP-18 NSCLC = tested on: HOP-18 NSCLC
HOP-62 NSCLC = tested on: HOP-62 NSCLC
HOP-92 NSCLC = tested on: HOP-92 NSCLC
HT29 colon = tested on: HT29 colon
IGROV1 ovarian = tested on: IGROV1 ovarian
KM12 colon = tested on: KM12 colon
KM20L2 colon = tested on: KM20L2 colon
LOX IMVI melanoma = tested on: LOX IMVI melanoma
LXFL 529 NSCLC = tested on: LXFL 529 NSCLC
M14 melanoma = tested on: M14 melanoma
M19-MEL melanoma = tested on: M19-MEL melanoma
MALME-3M melanoma = tested on: MALME-3M melanoma
MOLT-4 leukemia = tested on: MOLT-4 leukemia
NCI-H226 lung = tested on: NCI-H226 lung
NCI-H23 lung = tested on: NCI-H23 lung
NCI-H460 lung = tested on: NCI-H460 lung
OVCAR-3 ovarian = tested on: OVCAR-3 ovarian
OVCAR-4 ovarian = tested on: OVCAR-4 ovarian
OVCAR-5 ovarian = tested on: OVCAR-5 ovarian
OVCAR-8 ovarian = tested on: OVCAR-8 ovarian
RPMI-8226 leukemia = tested on: RPMI-8226 leukemia
RXF 393 renal = tested on: RXF 393 renal
RXF-631 renal = tested on: RXF-631 renal
SF-268 CNS = tested on: SF-268 CNS
SF-295 CNS = tested on: SF-295 CNS
SF-539 CNS = tested on: SF-539 CNS
SK-MEL-28 melanoma = tested on: SK-MEL-28 melanoma
SK-MEL-5 melanoma = tested on: SK-MEL-5 melanoma
SK-OV-3 ovarian = tested on: SK-OV-3 ovarian
SN12C renal = tested on: SN12C renal
SNB-19 CNS = tested on: SNB-19 CNS
SNB-75 CNS = tested on: SNB-75 CNS
SNB-78 CNS = tested on: SNB-78 CNS
SR leukemia = tested on: SR leukemia
SW-620 colon = tested on: SW-620 colon
U251 CNS = tested on: U251 CNS
UACC-62 melanoma = tested on: UACC-62 melanoma
UO-31 renal = tested on: UO-31 renal
CCRF-CEM leukemia = tested on: CCRF-CEM leukemia
HL-60(TB) leukemia = tested on: HL-60(TB) leukemia
K-562 leukemia = tested on: K-562 leukemia
NCI-H522 lung = tested on: NCI-H522 lung
SK-MEL-2 melanoma = tested on: SK-MEL-2 melanoma
TK-10 renal = tested on: TK-10 renal
UACC-257 melanoma = tested on: UACC-257 melanoma
A498 renal = tested on: A498 renal

## Cn1cnc([N+](=O)[O-])c1Sc1nc2ccccc2s1
786-0 renal
  TGI: 24.7 µM
A549 NSCLC
  TGI: 22.8 µM
ACHN renal
  TGI: 28.8 µM
CAKI-1 renal
  TGI: 6.9 µM
COLO 205 colon
  TGI: 14.5 µM
DLD-1 colon
  TGI: 18.1 µM
DMS 114 small cell lung
  TGI: 14.9 µM
DMS 273 small cell lung
  TGI: 2.71 µM
EKVX NSCLC
  TGI: 17.8 µM
HCC-2998 colon
  TGI: 22 µM
HCT-116 colon
  TGI: 18.7 µM
HCT-15 colon
  TGI: 14.6 µM
HOP-18 NSCLC
  TGI: 0.902 µM
HOP-62 NSCLC
  TGI: 86.1 µM
HOP-92 NSCLC
  TGI: 14.3 µM
HT29 colon
  TGI: 28.5 µM
IGROV1 ovarian
  TGI: 25.2 µM
KM12 colon
  TGI: 29.3 µM
KM20L2 colon
  TGI: 23.5 µM
LOX IMVI melanoma
  TGI: 31 µM
LXFL 529 NSCLC
  TGI: 24.7 µM
M14 melanoma
  TGI: 29 µM
M19-MEL melanoma
  TGI: 24.3 µM
MALME-3M melanoma
  TGI: 13.2 µM
MOLT-4 leukemia
  TGI: 4.91 µM
NCI-H226 lung
  TGI: 22.1 µM
NCI-H23 lung
  TGI: 23.9 µM
NCI-H460 lung
  TGI: 24.3 µM
OVCAR-3 ovarian
  TGI: 14.5 µM
OVCAR-4 ovarian
  TGI: 13.1 µM
OVCAR-5 ovarian
  TGI: 27.9 µM
OVCAR-8 ovarian
  TGI: 17.6 µM
RPMI-8226 leukemia
  TGI: 43.1 µM
RXF 393 renal
  TGI: 8.22 µM
RXF-631 renal
  TGI: 16.9 µM
SF-268 CNS
  TGI: 20.7 µM
SF-295 CNS
  TGI: 44.6 µM
SF-539 CNS
  TGI: 25.1 µM
SK-MEL-28 melanoma
  TGI: 21.1 µM
SK-MEL-5 melanoma
  TGI: 27.1 µM
SK-OV-3 ovarian
  TGI: 29.5 µM
SN12C renal
  TGI: 17.6 µM
SNB-19 CNS
  TGI: 29.4 µM
SNB-75 CNS
  TGI: 29.3 µM
SNB-78 CNS
  TGI: 33 µM
SR leukemia
  TGI: 13.2 µM
SW-620 colon
  TGI: 15.1 µM
U251 CNS
  TGI: 24.4 µM
UACC-62 melanoma
  TGI: 25.7 µM
UO-31 renal
  TGI: 21.5 µM

## N#CC(C#N)=C1NN=C(Cl)c2ccccc21
786-0 renal
  TGI: > 100 µM
A549 NSCLC
  TGI: > 100 µM
ACHN renal
  TGI: > 100 µM
CAKI-1 renal
  TGI: > 100 µM
CCRF-CEM leukemia
  TGI: > 100 µM
COLO 205 colon
  TGI: > 100 µM
DLD-1 colon
  TGI: > 100 µM
DMS 114 small cell lung
  TGI: > 100 µM
DMS 273 small cell lung
  TGI: > 100 µM
EKVX NSCLC
  TGI: > 100 µM
HCC-2998 colon
  TGI: > 100 µM
HCT-15 colon
  TGI: > 100 µM
HL-60(TB) leukemia
  TGI: > 100 µM
HOP-18 NSCLC
  TGI: > 100 µM
HOP-62 NSCLC
  TGI: > 100 µM
HOP-92 NSCLC
  TGI: > 100 µM
HT29 colon
  TGI: > 100 µM
IGROV1 ovarian
  TGI: > 100 µM
K-562 leukemia
  TGI: > 100 µM
KM12 colon
  TGI: > 100 µM
KM20L2 colon
  TGI: > 100 µM
LOX IMVI melanoma
  TGI: > 100 µM
LXFL 529 NSCLC
  TGI: > 100 µM
M14 melanoma
  TGI: > 100 µM
M19-MEL melanoma
  TGI: > 100 µM
MALME-3M melanoma
  TGI: > 100 µM
MOLT-4 leukemia
  TGI: > 100 µM
NCI-H23 lung
  TGI: > 100 µM
NCI-H460 lung
  TGI: > 100 µM
NCI-H522 lung
  TGI: > 100 µM
OVCAR-3 ovarian
  TGI: > 100 µM
OVCAR-4 ovarian
  TGI: > 100 µM
OVCAR-5 ovarian
  TGI: > 100 µM
OVCAR-8 ovarian
  TGI: > 100 µM
RPMI-8226 leukemia
  TGI: > 100 µM
RXF 393 renal
  TGI: > 100 µM
RXF-631 renal
  TGI: > 100 µM
SF-268 CNS
  TGI: > 100 µM
SF-295 CNS
  TGI: > 100 µM
SF-539 CNS
  TGI: > 100 µM
SK-MEL-2 melanoma
  TGI: > 100 µM
SK-MEL-28 melanoma
  TGI: > 100 µM
SK-MEL-5 melanoma
  TGI: > 100 µM
SK-OV-3 ovarian
  TGI: > 100 µM
SN12C renal
  TGI: > 100 µM
SNB-75 CNS
  TGI: > 100 µM
SW-620 colon
  TGI: > 100 µM
TK-10 renal
  TGI: > 100 µM
U251 CNS
  TGI: > 100 µM
UACC-257 melanoma
  TGI: > 100 µM
UACC-62 melanoma
  TGI: > 100 µM
UO-31 renal
  TGI: > 100 µM

## O=C1C2c3[nH]c4ccccc4c3C3CCCCC3C2C(=O)N1c1ccccc1 (configuration not stated)
786-0 renal
  TGI: > 100 µM
A498 renal
  TGI: > 100 µM
A549 NSCLC
  TGI: > 100 µM
ACHN renal
  TGI: > 100 µM
CCRF-CEM leukemia
  TGI: > 100 µM
COLO 205 colon
  TGI: > 100 µM
DLD-1 colon
  TGI: > 100 µM
DMS 114 small cell lung
  TGI: > 100 µM
DMS 273 small cell lung
  TGI: > 100 µM
EKVX NSCLC
  TGI: > 100 µM
HCC-2998 colon
  TGI: > 100 µM
HCT-15 colon
  TGI: > 100 µM
HL-60(TB) leukemia
  TGI: > 100 µM
HOP-18 NSCLC
  TGI: 95.2 µM
HT29 colon
  TGI: > 100 µM
IGROV1 ovarian
  TGI: > 100 µM
K-562 leukemia
  TGI: > 100 µM
KM12 colon
  TGI: > 100 µM
LOX IMVI melanoma
  TGI: > 100 µM
LXFL 529 NSCLC
  TGI: > 100 µM
M14 melanoma
  TGI: > 100 µM
M19-MEL melanoma
  TGI: > 100 µM
MALME-3M melanoma
  TGI: > 100 µM
MOLT-4 leukemia
  TGI: > 100 µM
NCI-H226 lung
  TGI: > 100 µM
NCI-H23 lung
  TGI: > 100 µM
NCI-H460 lung
  TGI: > 100 µM
OVCAR-3 ovarian
  TGI: > 100 µM
OVCAR-4 ovarian
  TGI: > 100 µM
OVCAR-5 ovarian
  TGI: > 100 µM
OVCAR-8 ovarian
  TGI: > 100 µM
RPMI-8226 leukemia
  TGI: > 100 µM
RXF 393 renal
  TGI: 62.3 µM
RXF-631 renal
  TGI: > 100 µM
SF-268 CNS
  TGI: > 100 µM
SF-295 CNS
  TGI: > 100 µM
SF-539 CNS
  TGI: > 100 µM
SK-MEL-28 melanoma
  TGI: > 100 µM
SK-MEL-5 melanoma
  TGI: > 100 µM
SK-OV-3 ovarian
  TGI: 52.4 µM
SN12C renal
  TGI: > 100 µM
SNB-19 CNS
  TGI: > 100 µM
SNB-75 CNS
  TGI: 32.9 µM
SNB-78 CNS
  TGI: > 100 µM
SR leukemia
  TGI: > 100 µM
SW-620 colon
  TGI: > 100 µM
TK-10 renal
  TGI: > 100 µM
U251 CNS
  TGI: > 100 µM
UACC-62 melanoma
  TGI: > 100 µM
UO-31 renal
  TGI: > 100 µM
